From the supplement of paper PMC10307832

What was measured:
Assay in all cases: relative viability (nuclei count vs DMSO), 5 days (fraction); higher = more cells survive
4EGI-1 + Bortezomib = compound: O=C(O)C(Cc1ccccc1[N+](=O)[O-])=NNc1nc(-c2ccc(Cl)c(Cl)c2)cs1 (mixture of isomers) [4EGI-1] + CC(C)C[C@H](NC(=O)[C@H](Cc1ccccc1)NC(=O)c1cnccn1)B(O)O [Bortezomib] (partner 0.002 µM)
In short: (§1)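 Relative viability is defined as nuclei in treated wells over nuclei in vehicle wells. Duplicate plates were run and medians reported. Lung cancer cell lines in 1536-well plates were dosed by pin tool one day after seeding, with one drug or with a fixed anchor-drug dose plus five library-drug doses (not always all listed) in √10 steps, and nuclei were counted after 5 days.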

4EGI-1 + AZD7762 = compound: O=C(O)C(Cc1ccccc1[N+](=O)[O-])=NNc1nc(-c2ccc(Cl)c(Cl)c2)cs1 (mixture of isomers) [4EGI-1] + NC(=O)Nc1cc(-c2cccc(F)c2)sc1C(=O)N[C@H]1CCCNC1 [AZD7762] (partner 0.2 µM)
In short: as §1

XMD8-85 + Bortezomib = compound: CN1CCN(CC1)C2=CC(=C(C=C2)NC3=NC=C4C(=N3)N(C5=CC=CC=C5C(=O)N4C)C)OC [XMD8-85] + CC(C)C[C@H](NC(=O)[C@H](Cc1ccccc1)NC(=O)c1cnccn1)B(O)O [Bortezomib] (partner 0.002 µM)
In short: as §1

XMD8-85 + Crizotinib = compound: CN1CCN(CC1)C2=CC(=C(C=C2)NC3=NC=C4C(=N3)N(C5=CC=CC=C5C(=O)N4C)C)OC [XMD8-85] + C[C@@H](Oc1cc(-c2cnn(C3CCNCC3)c2)cnc1N)c1c(Cl)ccc(F)c1Cl [Crizotinib] (partner 1 µM)
In short: as §1

Cell Line	relative viability (4EGI-1 + Bortezomib; first compound 0.5 µM)	relative viability (4EGI-1 + Bortezomib; first compound 1.581 µM)	relative viability (4EGI-1 + Bortezomib; first compound 5 µM)	relative viability (4EGI-1 + Bortezomib; first compound 15.81 µM)	relative viability (4EGI-1 + Bortezomib; first compound 50 µM)	relative viability (4EGI-1 + AZD7762; first compound 0.5 µM)	relative viability (4EGI-1 + AZD7762; first compound 1.581 µM)	relative viability (4EGI-1 + AZD7762; first compound 5 µM)	relative viability (4EGI-1 + AZD7762; first compound 15.81 µM)	relative viability (4EGI-1 + AZD7762; first compound 50 µM)	relative viability (XMD8-85 + Bortezomib; first compound 0.08 µM)	relative viability (XMD8-85 + Bortezomib; first compound 0.253 µM)	relative viability (XMD8-85 + Bortezomib; first compound 0.8 µM)	relative viability (XMD8-85 + Bortezomib; first compound 2.53 µM)	relative viability (XMD8-85 + Crizotinib; first compound 0.08 µM)	relative viability (XMD8-85 + Crizotinib; first compound 0.253 µM)	relative viability (XMD8-85 + Crizotinib; first compound 0.8 µM)	relative viability (XMD8-85 + Crizotinib; first compound 2.53 µM)	relative viability (XMD8-85 + Crizotinib; first compound 8 µM)	relative viability (XMD8-85 + Bortezomib; first compound 8 µM)
LC-2-ad	1.17	0.877	0.944	0.444	0.352	0.855	0.866	0.917	0.3	0.208	1.04	0.976	0.99	0.921	0.442	0.446	0.462	0.444	0.303	
EKVX	1.09	0.965	1.06	1.04	1.04	0.812		0.649	0.546	0.656	1.08	1.11	1.09	1.13	0.892	0.985	1.12	1	0.886	1
LCLC-103H	1.03	0.964	0.98	0.955	0.959	0.868	0.727	0.788	0.756	0.446	1.07	1.23	1.03	1.05	0.973	1.07	1.14	1.07	0.761	1.01
NCI-H1651	0.951	0.837	0.934	0.896	0.772	0.519	0.43	0.521	0.31	0.195	1.08	0.946	0.882	0.903	0.924	0.855	0.822	0.836	0.772	0.875
NCI-H2405	0.972	0.858	0.949	0.992	0.79	0.746		0.851	0.692	0.285	1.01	0.983	0.975	1.02	0.829	0.815	0.769	0.85	0.665	0.927
HCC-15	1.09	1.12	1.06	0.951	0.801	1.21	1.12	1.26	1.17	1.28	0.948	1	1.14	1.15	0.852	0.859	0.855	0.806	0.592	0.926
PC-3 [JPC-3]	0.787	0.81	0.812		0.645	0.845		0.868	0.519	0.323	0.701	0.824	0.736	0.968	0.827	1.12	1.01	1.09	0.986	0.732
A-427	0.984	0.795	0.911	0.832	0.625	0.819		0.715	0.513	0.231	1.04	1.05	0.948	1.18	0.897	0.934	0.922	1.05	0.56	0.893
NCI-H1755	1.06	0.94	0.918	0.802	0.441	0.441	0.411	0.457	0.344	0.252	0.97	1.14	0.918	1.06	0.901	0.978	0.892	0.939	0.748	0.806
NCI-H2347	1.06	0.835	0.992	1.08	0.886	0.858	0.78	0.734	0.732	0.593	1.2	1.09	0.824	0.921	0.696	0.785	0.749	0.609	0.614	0.407
LXF-289	1.06	1.06	1	0.876	0.443	1.05	1.1	1.06	1.04	0.545	0.977	0.999	0.97	1.04	0.787	0.798	0.809	0.804	0.658	0.978
NCI-H1666	1.22	0.693	0.862	0.474	0.228	0.81	0.68	0.757	0.497	0.341	0.831	0.754	0.745	0.735	0.789	0.917	1.35	1.31	0.705	
HCC-78	0.618	0.466	0.513	0.432	0.399	0.617		0.651	0.451	0.512	0.639	0.455	0.375	0.495	0.363	0.364	0.304	0.37	0.295	0.316
NCI-H2126	1.13	1.04	1.07	1	1.11	1.03	1.09	1	0.901	0.772	1.04	1.13	1.18	1.15	1.02	0.974	1.02	1.06	1	1.12
NCI-H1993	1.19	0.899	0.988	0.689	0.516	0.904	0.689	0.937	0.504	0.356	0.965	0.958	1.08	1.29	0.783	0.77	0.869	0.944	0.64	1.07
LOU-NH91	0.501		0.531	0.384	0.426	0.811		0.781	0.72	0.439	0.448	0.466	0.488	0.489	0.749	0.741	0.728	0.725	0.67	0.4
